This is an account of results in US20060128666A1, “Use of sphingomyelin and lyso-sphingomyelin as absorption enhancers” (priority 2003, published 2006).

For one data set, the system named is Caco-2 cell layers. Nature of the data set: Transport of the lipids themselves from apical to basolateral side of Caco-2 cell layer. Particulars: 19 μg/ml lysosphingomyelin or 16.6 μg/ml phytosphingosine added to apical compartment.
In data set [1] the test system is confluent Caco-2 cell layers. The data set can be described thus: Transport of nutrients and bisphosphonates through confluent Caco-2 cell layers in two-compartment transport system, in presence of sphingolipid. In kind it is in vitro ADME, human. The settings on record: for Transport velocity of testosterone / Velocity measured/Control velocity, testosterone: nutrient testosterone 10 μM. How it is done:
GlySar, mannitol, testosterone, caffeine and cholesterol were tested at a concentration of 10 μM. This concentration was reached by mixing “cold” and radioactively labeled test substrate (mannitol, testosterone and cholesterol) or by testing the radioactively labeled substrate alone (GlySar and caffeine).
In general, the experiments were carried out in the presence and in the absence of 0.03 wt. % of bile. If bile was used in an experiment, this is explicitly stated in the results.
For the present transport studies, Caco-2 cells (passage 34) were seeded on semi-permeable filter inserts (12-well Transwell™ plates, 0.4 μm pores, Corning Costar) at 100,000 cells.per filter (growth surface 1.13 cm^2 containing 2.5 ml of culture medium). The number of cells was counted using a Bürker-Türk count chamber. The cells on the inserts were grown for 21 days at 37° C. in a humidified incubator in an atmosphere of air containing 5% of CO2. During such a culture period, the cells undergo an enterocyte-like differentiation.
Three filter inserts were used per experimental group.
The radioactivity in all samples was determined as DPM (disintegrations per minute), using an LKB/Wallac S1409 scintillation counter. The amount of radioactivity was determined in the 100-μl samples of the dose compartments and in the 500-μl samples of the receptor compartments.
In the experiments whose results are shown in Table 1, phytosphingosine was added as 0.02 wt. % (0.6 μM), ceramide III as 0.02 wt. % (0.3 μM), lysosphingomyelin as 0.008 wt. % (0.2 μM), sphinganine as 0.02 wt. % (0.6 μM) sphingosine as 0.02 wt. % (0.6 μM), egg sphingomyelin as 0.02 wt. % (0.3 μM) and glucosylceramide III as 0.02 wt. % (0.3 μM).

Where [2] appears, read: bisphosphonate EB1053 10 μM, no bile, lysosphingomyelin 0.008 wt. %.
The mark [3] stands for this setting: bisphosphonate EB1053 at 10× conc., no bile, lysosphingomyelin 0.008 wt. %.
Setting [4] is: bisphosphonate d-ADP 10 μM, no bile, lysosphingomyelin 0.008 wt. %.
[5] abbreviates: bisphosphonate d-ADP at 10× conc., no bile, lysosphingomyelin 0.008 wt. %.
Setting [6] is: nutrient GlySar 10 μM, additive 0.03% bile, lysosphingomyelin 0.008 wt. %.
Where [7] appears, read: nutrient caffeine 10 μM, additive 0.03% bile, lysosphingomyelin 0.008 wt. %.
Where [8] appears, read: nutrient cholesterol 10 μM, additive 0.03% bile, test lipid 0.02 wt. % (lysosphingomyelin 0.008 wt. %).
[9] abbreviates: nutrient mannitol 10 μM, additive 0.03% bile, lysosphingomyelin 0.008 wt. %.
The mark [10] stands for this setting: additive 0.03% bile, lysosphingomyelin 0.008 wt. %.
Where [11] appears, read: no bile, test lipid 0.02 wt. % (lysosphingomyelin 0.008 wt. %).

Procedure for Caco-2 cell monolayers: After 21 days of cell culture, the transepithelial electrical resistance (TEER) of the monolayers was used to check on the growth and differentiation of the Caco-2 cells on the filters (Duizer et al., J. Contr. Release 49: 39-49, 1997). The TEER is a measure for the differentiation status of the monolayer and was measured by means of the Millicell-ERS epithelial volt ohm meter (Millipore Co., Bedford, USA). Only monolayers having a TEER higher than 500 Ω.cm^−2 were used in the transport experiments.
Three filter inserts were used per experimental group. The integrity of all monolayers of Caco-2 cells used in this study was determined by measuring the transepithelial electrical resistance (TEER).

On to `CCCCCCCCCCCCCC[C@@H](O)[C@@H](O)[C@@H](N)CO` [phytosphingosine], for which the “Lipid still demonstrated in the apical liquid after 120 minutes” value with Caco-2 cell layers turned out to be 12.9 µg/mL. In addition, in the data set with Caco-2 cell layers (120 minutes), the “Lipid in the basolateral liquids (apical to basolateral transport of lipid)” value is on record as “no lipids could be demonstrated”.

Take `CCCCCCCCCCCCC/C=C/[C@@H](O)[C@@H](N)COP(=O)([O-])OCC[N+](C)(C)C` [lysosphingomyelin, sphingosyl-phosphorylcholine]: in the data set with Caco-2 cell monolayers, the “Resistance between the apical and basolateral liquids” value is “decrease”. In data set [1] (setting [2]), the “Transport velocity of EB1053” value worked out at 371 ± 17 cm · hour^−1 × 10^−7 and the “Velocity measured/Control velocity, EB1053” value came to 12.2. In addition, in data set [1] (setting [3]), the “Transport velocity of EB1053 (10× conc.)” value is on record as 414 ± 13 cm · hour^−1 × 10^−7 and the “Velocity measured/Control velocity, EB1053 (10× conc.)” value is reported as 12.1. In data set [1] (setting [4]), the “Transport velocity of d-ADP” value came out at 922 ± 10 cm · hour^−1 × 10^−7 and the “Velocity measured/Control velocity, d-ADP” value stood at 4.9. Also, in data set [1] (setting [5]), the “Transport velocity of d-ADP (10× conc.)” value was determined as 498 ± 8 cm · hour^−1 × 10^−7 and the “Velocity measured/Control velocity, d-ADP (10× conc.)” value came to 6.1. Further, in data set [1] (in presence of 0.008% (w/v) lysosphingomyelin), the “Increase of EB-1053 transport (times faster)” value came out at 12 times. In data set [1] (setting [6]), the “Transport velocity of GlySar” value turned out to be 35.4 ± 2.4 cm · hour^−1 × 10^−7 and the “Velocity measured/Control velocity, GlySar” value was found to be 1. Further, in data set [1] (nutrient GlySar 10 μM, no bile, test lipid 0.02 wt. % (lysosphingomyelin 0.008 wt. %)), the “Transport velocity of GlySar” value came to 79.7 ± 28.1 cm · hour^−1 × 10^−7. In data set [1] (setting [7]), the “Transport velocity of caffeine” value turned out to be 560 ± 29 cm · hour^−1 × 10^−7 and the “Velocity measured/Control velocity, caffeine” value was 1. Further, in data set [1] (nutrient caffeine 10 μM, no bile, test lipid 0.02 wt. % (lysosphingomyelin 0.008 wt. %)), the “Transport velocity of caffeine” value was 559 ± 38 cm · hour^−1 × 10^−7. In addition, in data set [1] (setting [8]), the “Transport velocity of cholesterol” value is on record as 1.25 (n = 1) cm · hour^−1 × 10^−7 and the “Velocity measured/Control velocity, cholesterol” value worked out at 1. For the same compound, in data set [1] (setting [9]), the “Transport velocity of mannitol” value turned out to be 12.3 ± 1.8 cm · hour^−1 × 10^−7 and the “Velocity measured/Control velocity, mannitol” value was 1. Further, the “Transport velocity of mannitol” value in data set [1] (nutrient mannitol 10 μM, no bile, test lipid 0.02 wt. % (lysosphingomyelin 0.008 wt. %)) was determined as 120 ± 9 cm · hour^−1 × 10^−7. Further, in data set [1] (setting [10]), the “Transport velocity of testosterone” value is listed as 576 ± 24 cm · hour^−1 × 10^−7 and the “Velocity measured/Control velocity, testosterone” value is given as 1. Further, in data set [1] (setting [11]), the “Transport velocity of testosterone” value came out at 536 ± 21 cm · hour^−1 × 10^−7 and the “Velocity measured/Control velocity, testosterone” value is listed as 1.
